Data reported in patent US5783597A, “2,5-disubstituted thiophenes: inhibitors of 5-lipoxygenase and inducible cyclooxygenase (COX-2) enzymes, composition and use” (Ortho Pharmaceutical Corporation, priority 1997, dated 1998).

How the values were obtained:
5-lipoxygenase (5-LO) [1] = molecular target: T1, 5-lipoxygenase (5-LO) (Rattus norvegicus, UniProt P12527); assay: RBL-1 cell 5-lipoxygenase and cyclooxygenase - Homogenate (Procedure I); format: biochemical
T1 construct: endogenous in cells; host or cells: intact RBL-1 (rat basophilic leukemia) cells, stimulated with calcium ionophore A23187
T1 sequence (P12527 1-673): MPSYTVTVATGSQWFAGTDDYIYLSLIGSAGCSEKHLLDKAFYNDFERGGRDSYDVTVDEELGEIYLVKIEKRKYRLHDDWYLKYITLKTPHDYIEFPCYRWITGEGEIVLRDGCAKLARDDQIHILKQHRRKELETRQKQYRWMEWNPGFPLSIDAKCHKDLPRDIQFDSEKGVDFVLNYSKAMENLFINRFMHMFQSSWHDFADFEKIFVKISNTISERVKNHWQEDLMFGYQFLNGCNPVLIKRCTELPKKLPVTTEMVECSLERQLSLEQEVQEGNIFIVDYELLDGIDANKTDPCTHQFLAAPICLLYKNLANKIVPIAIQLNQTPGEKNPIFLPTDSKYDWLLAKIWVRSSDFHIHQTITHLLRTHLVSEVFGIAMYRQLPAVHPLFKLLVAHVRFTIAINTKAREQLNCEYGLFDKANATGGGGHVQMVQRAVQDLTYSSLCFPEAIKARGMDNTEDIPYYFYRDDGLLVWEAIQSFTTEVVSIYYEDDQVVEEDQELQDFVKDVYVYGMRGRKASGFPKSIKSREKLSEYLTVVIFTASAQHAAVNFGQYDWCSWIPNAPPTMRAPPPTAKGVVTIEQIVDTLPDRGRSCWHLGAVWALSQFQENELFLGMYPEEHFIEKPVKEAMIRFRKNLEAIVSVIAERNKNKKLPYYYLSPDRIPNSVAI
Procedure: RBL-1 cell 5-lipoxygenase and cyclooxugenase - Homogenate
Rat basophilic leukemia cells (RBL-1; 5×10^7 viable cells/mL) were disrupted by homogenization on ice (four 20 sec bursts) with a Brinkman polytron. […] The homogenate was then centrifuged at 9,220×g for 48 minutes at 4° C. The pellet was discarded and the supernatant was saved as the source of enzymes. The supernatant was pre-incubated for five minutes at 37° C. in the presence of 2 mM of CaCl2 and compound or vehicle (1% DMSO). The conversion of AA into products by CO and LO was initiated by adding 10 μL (50 μCi) of 1-^14 C-AA to each tube and incubated at 37° C. for 20 minutes. The reaction was stopped by adjusting the pH of each sample to 3 to 3.5 with 2M formic acid. Samples were extracted with three volumes of chloroform to isolate the products of 5-LO formed during the reaction. Fractions were dried under nitrogen, then resuspended in 40 μL of chloroform and spotted onto silica gel HL plates. The plates were developed in A-9 solvent. The dried plates were analyzed using a Bioscan Imaging TLC scanner to determine the percentage of radiolabelled M converted to 5-HETE (LO product) and PGD2 (CO product) in each sample.

5-lipoxygenase (5-LO) [2] = molecular target: T1, 5-lipoxygenase (5-LO); assay: RBL-1 cell 5-lipoxygenase and cyclooxygenase - Whole cells (Procedure II); format: cell-based
Procedure: RBL-1 Cell 5-Lipoxygenase and cyclooxygenase - Whole cells
The ability to inhibit 5-LO and CO in intact RBL-1 cells was also evaluated. […] Cells were collected by centrifugation, washed once in HBSS, and resuspended at a concentration of 1×10^5 cells/mL. Cells were incubated in the presence of vehicle or drug then centrifuged at 800×g for 10 minutes at 4° C. The supernatant was removed by aspiration and the cells were resuspended in 0.5 mL of HBSS. […] The conversion of M to 5-LO products was initiated by the addition of 10 μL (50 uCi) of 1-^14 C-AA. Products were isolated by acidification and extraction, followed by thin layer chromatography analysis as described above. Radioactive areas corresponding to authentic 5-LO (5-HETE) and CO (PGD2) products were quantitated by the Bioscan 2000 Imaging System.

[3] = molecular target: T2, Human Prostaglandin H2 Synthase Typ II (Cox-2) (Homo sapiens, UniProt P35354); assay: Human Prostaglandin H2 Synthase Typ II (Cox-2) Whole Cell Assay, ECV-304 cells (Procedure III); format: cell-based; conditions: ECV-304 whole cells; for IC50: PGE2 produced, read-out: Procedure III (COX-2) Wh Cell IC50; for inhibition at 10 µM: read-out: Procedure III (COX-2) Wh Cell, percent inhibition of PGE2 produced
T2 construct: endogenous in cells; host or cells: ECV-304 cells treated with PMA and ionomycin for 16 hours
T2 sequence (P35354 18-604): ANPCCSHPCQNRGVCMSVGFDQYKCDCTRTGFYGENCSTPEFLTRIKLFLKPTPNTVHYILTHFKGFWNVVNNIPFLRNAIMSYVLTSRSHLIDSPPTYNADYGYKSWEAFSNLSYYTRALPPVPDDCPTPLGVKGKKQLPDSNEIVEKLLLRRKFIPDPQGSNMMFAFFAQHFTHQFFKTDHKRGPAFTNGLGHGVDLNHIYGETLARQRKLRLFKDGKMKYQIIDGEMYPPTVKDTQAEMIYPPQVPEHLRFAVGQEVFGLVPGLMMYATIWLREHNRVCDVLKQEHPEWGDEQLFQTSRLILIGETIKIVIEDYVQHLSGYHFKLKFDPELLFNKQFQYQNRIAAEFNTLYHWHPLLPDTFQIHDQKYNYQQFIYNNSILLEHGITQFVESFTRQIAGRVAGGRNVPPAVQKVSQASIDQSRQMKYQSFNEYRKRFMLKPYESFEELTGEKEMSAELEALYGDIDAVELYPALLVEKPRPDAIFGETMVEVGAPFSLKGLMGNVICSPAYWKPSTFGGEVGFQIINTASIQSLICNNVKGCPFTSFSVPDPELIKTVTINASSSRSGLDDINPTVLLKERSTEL
Procedure: Human Prostaglandin H2 Synthase Typ II (Cox-2) Whole Cell Assay (Multiple Concentrations)
ECV-304 (human, endothelial, umbilical cord) cells are maintained in culture in a suitable medium, and are trypsinized and plated at a density of 1×10^6 cells per well of a 6 well plate prior to assay. Approximately 28 hours later, 50 μg/ml PMA and […] ionomycin (both final concentrations) are added to each well and incubated for an additional 16 hours. Vehicle or test compounds are incubated with the cells for five minutes prior to initiation of Cox-2 enzyme activity by the addition of 30 μM arachidonic acid. Ten minutes later, an aliquot of the supernatant is withdrawn and the amount of PGE2 present quantitated by radioimmunoassay. Activity, reported as percent inhibition of PGE2 produced, is calculated as follows: […]

[4] = RBL-1 homogenate supernatant, 5-HETE, read-out: Procedure I (5-LO) Homog. IC50
[5] = intact RBL-1 cells, 5-HETE, read-out: Procedure II (5-LO) Wh Cell IC50

SMILES | IC50 (5-lipoxygenase (5-LO) [1]; [4]) | IC50 (5-lipoxygenase (5-LO) [2]; [5]) | IC50 [3] | inhibition at 10 µM [3] | IC50 (5-lipoxygenase (5-LO) [1]) | IC50 (5-lipoxygenase (5-LO) [2])
CS(=O)(=O)Nc1ccc(Oc2ccccc2)s1 [Example 2] | 70 nM | 470 nM | 4220 nM |  |  | 
CS(=O)(=O)Nc1ccc(Oc2cccc(F)c2)s1 [Example 3] | 160 nM | 490 nM |  | 13% |  | 
CSc1ccc(Oc2ccc(NS(C)(=O)=O)s2)cc1 [Example 4] | 100 nM | 660 nM |  | 39% |  | 
CS(=O)(=O)Nc1ccc(Oc2ccc(S(C)(=O)=O)cc2)s1 [Example 5] | 1800 nM | 38500 nM |  | 0% |  | 
CS(=O)(=O)Nc1ccc(Oc2ccc(F)c(Cl)c2)s1 [Example 6] | 30 nM | 890 nM | 5300 nM |  |  | 
COc1ccc(Oc2ccc(NS(C)(=O)=O)s2)cc1 [Example 7] | 20 nM | 1450 nM |  | 0% |  | 
CS(=O)(=O)Nc1ccc(Oc2cccc(Cl)c2)s1 [Example 8] | 60 nM | 500 nM | 10300 nM |  |  | 
Cc1cccc(Oc2ccc(NS(C)(=O)=O)s2)c1C [Example 9] | 60 nM | 660 nM |  | 54% |  | 
CS(=O)(=O)Nc1ccc(Oc2cccc(C(F)(F)F)c2)s1 [Example 10] | 60 nM | 780 nM | 1020 nM |  |  | 
Cc1cc(Oc2ccc(NS(C)(=O)=O)s2)ccc1F [Example 11] | 20 nM | 310 nM | 1180 nM |  |  | 
CS(=O)(=O)Nc1ccc(Oc2ccc(Cl)cc2)s1 [Example 12] | 75 nM | 660 nM | 18000 nM |  |  | 
CS(=O)(=O)Nc1ccc(Oc2ccc(Cl)cc2Cl)s1 [Example 13] | 90 nM | 650 nM | 5800 nM |  |  | 
CS(=O)(=O)Nc1ccc(Oc2ccc(F)cc2F)s1 [Example 14] | 150 nM | 730 nM | 1970 nM |  |  | 
Cc1cccc(Oc2ccc(NS(C)(=O)=O)s2)c1 [Example 15] | 120 nM | 310 nM | 1690 nM |  |  | 
Cc1cc(F)ccc1Oc1ccc(NS(C)(=O)=O)s1 [Example 16] | 90 nM | 1090 nM | 1900 nM |  |  | 
CS(=O)(=O)Nc1ccc(Oc2ccc(F)cc2Br)s1 [Example 17] | 60 nM | 1400 nM | 5290 nM |  |  | 
CS(=O)(=O)Nc1ccc(Oc2cc(C(F)(F)F)cc(C(F)(F)F)c2)s1 [Example 18] | 310 nM | 6500 nM |  | 8% |  | 
CS(=O)(=O)Nc1ccc(Oc2cc(C(F)(F)F)ccc2Cl)s1 [Example 19] |  |  |  | 29% | 140 nM | 1800 nM
CC(C)c1cccc(Oc2ccc(NS(C)(=O)=O)s2)c1 [Example 20] | 610 nM | 4700 nM |  | 36% |  | 
CS(=O)(=O)Nc1ccc(Oc2cccc3ccccc23)s1 [Example 21] | 70 nM | 800 nM | 3000 nM |  |  | 
CS(=O)(=O)Nc1ccc(Oc2ccc3ccccc3c2)s1 [Example 22] | 60 nM | 770 nM | 10000 nM |  |  | 
CS(=O)(=O)Nc1ccc(Oc2cccc3c2CCCC3)s1 [Example 23] |  |  | 10000 nM |  |  | 
CCCCS(=O)(=O)Nc1ccc(Oc2ccccc2)s1 [Example 24] | 360 nM | 1120 nM | 10000 nM |  |  | 
CC(C)S(=O)(=O)Nc1ccc(Oc2ccccc2)s1 [Example 25] | 50 nM | 1040 nM |  | 16% |  | 
CCCCCCCCS(=O)(=O)Nc1ccc(Oc2ccccc2)s1 [Example 26] | 300 nM | 2900 nM |  | 8% |  | 
O=S(=O)(Nc1ccc(Oc2ccccc2)s1)c1ccccc1 [Example 27] | 100 nM | 900 nM |  | 44% |  | 
CS(=O)(=O)Nc1ccc(Sc2ccccc2)s1 [Example 28] | 190 nM | 700 nM |  | 33% |  | 
CS(=O)(=O)Nc1ccc(SC2CCCCC2)s1 [Example 29] | 70 nM | 2390 nM | 9100 nM |  |  | 
CCCCCSc1ccc(NS(C)(=O)=O)s1 [Example 30] | 40 nM | 630 nM | 2760 nM |  |  | 
CS(=O)(=O)Nc1ccc(Cc2ccccc2)s1 [Example 31, N-(5-Benzylthien-2-yl)methanesulfonamide] | 110 nM | 380 nM |  | 45% |  | 
